In US6962906B2, “Oligonucleotide analogues, methods of synthesis and methods of use” (Active Motif, priority 2000, dated 2005):

Tested on: Target oligonucleotides (SEQ ID NO:33-36)
Experiment: Affinity PAGE capture of target DNA and RNA oligonucleotides, detection with ethidium bromide
Assay type: binding
Details: electrophoresis at 40° C.
Source text: A HypNA-pPNA capture probe with the sequence: (Ch-Tp-Gh-Cp-Ah-Ap-Ah-Gp-Gh-Ap-Ch-Ap-Ch-Cp-Ah-Tp)-dG was synthesized coupled to a 5′ acrylamide residue as described in Example 19. The capture probe was co-polymerized with acrylamide as described in Example 18 in slots of an acrylamide gel as described in Rehman et al. (Nucleic Acids Research 27: 649-655 (1999)). Target oligonucleotides having the sequence: • d([…]) (SEQ ID NO:33)—complementary • d([…]) (SEQ ID NO:34)—mismatched • r([…]) (SEQ ID NO:35)—complementary • r([…]) (SEQ ID NO:36)—mismatched were electrophoresed through lanes of the gel at 40° C.
Following electrophoresis, the gel was stained with ethidium bromide and photographed under UV illumination.

(Ch-Tp-Gh-Cp-Ah-Ap-Ah-Gp-Gh-Ap-Ch-Ap-Ch-Cp-Ah-Tp)-dG [capture HypNA-pPNA probe]
capture of complementary target oligonucleotides in the gel (ethidium bromide fluorescence) (complementary DNA and RNA targets, lanes 1, 3, and 5): ethidium-stained fluorescent hybrids captured by the gel layer
capture of mismatched target oligonucleotides in the gel (ethidium bromide fluorescence) (single nucleobase mismatched DNA and RNA targets, lanes 2, 4, and 6): did not result in the capture of a target
